# Tests used:
# [1] = target: Serine/threonine-protein kinase B-raf (Homo sapiens) (UniProt P15056); test: Inhibition of human BRAF assessed as residual activity at 10 uM using MEK1 (K97R) as substrate preincubated for 20 mins followed by [gamma-33P]-ATP addition and measured after 120 mins by Hotspot assay relative to control
# [2] = target: T1, Tyrosine-protein kinase BTK (Homo sapiens, UniProt Q06187); test: Inhibition of human BTK assessed as residual activity at 10 uM using KVEKIGEGTYGVVYK as substrate preincubated for 20 mins followed by [gamma-33P]-ATP addition and measured after 120 mins by Hotspot assay relative to control
# T1 sequence (Q06187 whole entry): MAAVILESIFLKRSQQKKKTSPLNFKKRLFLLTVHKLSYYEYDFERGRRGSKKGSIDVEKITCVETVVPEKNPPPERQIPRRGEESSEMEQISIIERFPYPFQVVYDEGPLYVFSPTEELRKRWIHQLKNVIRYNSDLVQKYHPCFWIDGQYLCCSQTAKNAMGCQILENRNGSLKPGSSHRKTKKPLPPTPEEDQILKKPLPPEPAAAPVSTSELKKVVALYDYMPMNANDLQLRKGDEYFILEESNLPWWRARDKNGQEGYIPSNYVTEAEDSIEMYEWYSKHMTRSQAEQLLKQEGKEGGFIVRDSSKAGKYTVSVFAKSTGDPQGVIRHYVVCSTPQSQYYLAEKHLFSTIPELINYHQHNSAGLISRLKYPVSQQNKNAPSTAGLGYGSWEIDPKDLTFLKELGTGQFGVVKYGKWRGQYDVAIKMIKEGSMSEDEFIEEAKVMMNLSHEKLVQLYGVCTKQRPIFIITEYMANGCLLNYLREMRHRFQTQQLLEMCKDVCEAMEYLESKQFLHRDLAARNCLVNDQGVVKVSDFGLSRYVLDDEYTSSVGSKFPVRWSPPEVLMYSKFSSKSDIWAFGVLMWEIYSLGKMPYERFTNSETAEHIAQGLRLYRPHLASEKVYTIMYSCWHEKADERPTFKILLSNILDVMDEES
# [3] = target: CDK1/Cyclin A (Homo sapiens) (UniProt P06493+P20248); test: Inhibition of human CDK1/Cyclin-A assessed as residual activity at 10 uM using Histone H1 as substrate preincubated for 20 mins followed by [gamma-33P]-ATP addition and measured after 120 mins by Hotspot assay relative to control; assay type: protein-complex assay
# Chain of CDK1/Cyclin A (Homo sapiens) (P06493 whole entry, looked up): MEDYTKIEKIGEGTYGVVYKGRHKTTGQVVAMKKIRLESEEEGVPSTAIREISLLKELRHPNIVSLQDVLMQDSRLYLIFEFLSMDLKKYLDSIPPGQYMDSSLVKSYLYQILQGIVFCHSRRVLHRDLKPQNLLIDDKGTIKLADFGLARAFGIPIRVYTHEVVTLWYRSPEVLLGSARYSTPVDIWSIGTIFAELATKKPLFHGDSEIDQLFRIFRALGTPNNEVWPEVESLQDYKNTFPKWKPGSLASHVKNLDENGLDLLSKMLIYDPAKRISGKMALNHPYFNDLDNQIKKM
# Chain of CDK1/Cyclin A (Homo sapiens) (P20248 whole entry, looked up): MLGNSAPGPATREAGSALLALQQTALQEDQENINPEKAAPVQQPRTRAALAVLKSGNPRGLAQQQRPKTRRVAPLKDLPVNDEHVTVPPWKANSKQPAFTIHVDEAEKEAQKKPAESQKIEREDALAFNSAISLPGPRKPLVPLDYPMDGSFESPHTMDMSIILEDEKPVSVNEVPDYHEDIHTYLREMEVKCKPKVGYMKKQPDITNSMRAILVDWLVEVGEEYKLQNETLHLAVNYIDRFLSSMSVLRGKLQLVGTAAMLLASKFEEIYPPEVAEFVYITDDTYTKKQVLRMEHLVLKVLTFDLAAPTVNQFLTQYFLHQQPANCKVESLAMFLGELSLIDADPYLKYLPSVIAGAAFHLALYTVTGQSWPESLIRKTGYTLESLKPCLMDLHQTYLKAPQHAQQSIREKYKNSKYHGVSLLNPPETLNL
# [4] = target: Cyclin-dependent kinase 4/cyclin D1 (Homo sapiens) (UniProt P11802+P24385); test: Inhibition of human CDK4/cyclin-D1 assessed as residual activity at 10 uM using RB protein as substrate preincubated for 20 mins followed by [gamma-33P]-ATP addition and measured after 120 mins by Hotspot assay relative to control; assay type: protein-complex assay
# [5] = target: Cyclin-dependent kinase 7/ cyclin H (Homo sapiens) (UniProt P51946+P50613); test: Inhibition of human CDK7/cyclin-H assessed as residual activity at 10 uM using MBP as substrate preincubated for 20 mins followed by [gamma-33P]-ATP addition and measured after 120 mins by Hotspot assay relative to control; assay type: protein-complex assay
# [6] = target: Serine/threonine-protein kinase Chk1 (Homo sapiens) (UniProt O14757); test: Inhibition of human CHK1 assessed as residual activity at 10 uM using KKKVSRSGLYRSPSMPENLNRPR as substrate preincubated for 20 mins followed by [gamma-33P]-ATP addition and measured after 120 mins by Hotspot assay relative to control
# Chain of Serine/threonine-protein kinase Chk1 (Homo sapiens) (O14757 whole entry): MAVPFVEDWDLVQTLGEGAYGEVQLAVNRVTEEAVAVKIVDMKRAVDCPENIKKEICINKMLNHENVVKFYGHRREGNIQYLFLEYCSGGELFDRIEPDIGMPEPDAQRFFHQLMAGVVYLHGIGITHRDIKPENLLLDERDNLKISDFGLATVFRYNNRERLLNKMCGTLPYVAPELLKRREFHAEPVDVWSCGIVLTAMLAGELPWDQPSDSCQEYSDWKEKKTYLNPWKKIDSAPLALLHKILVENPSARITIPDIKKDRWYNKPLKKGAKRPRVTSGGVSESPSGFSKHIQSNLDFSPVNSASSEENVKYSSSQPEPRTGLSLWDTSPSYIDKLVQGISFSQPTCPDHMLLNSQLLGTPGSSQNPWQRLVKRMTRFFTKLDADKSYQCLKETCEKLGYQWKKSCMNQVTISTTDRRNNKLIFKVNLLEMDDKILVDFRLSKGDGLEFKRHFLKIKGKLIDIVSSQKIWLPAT
# [7] = target: Inhibitor of nuclear factor kappa-B kinase subunit alpha (Homo sapiens) (UniProt O15111); test: Inhibition of human IKKalpha assessed as residual activity at 10 uM using KKKKERLLDDRHDSGLDSMKDEE as substrate preincubated for 20 mins followed by [gamma-33P]-ATP addition and measured after 120 mins by Hotspot assay relative to control
# Chain of Inhibitor of nuclear factor kappa-B kinase subunit alpha (Homo sapiens) (O15111 whole entry): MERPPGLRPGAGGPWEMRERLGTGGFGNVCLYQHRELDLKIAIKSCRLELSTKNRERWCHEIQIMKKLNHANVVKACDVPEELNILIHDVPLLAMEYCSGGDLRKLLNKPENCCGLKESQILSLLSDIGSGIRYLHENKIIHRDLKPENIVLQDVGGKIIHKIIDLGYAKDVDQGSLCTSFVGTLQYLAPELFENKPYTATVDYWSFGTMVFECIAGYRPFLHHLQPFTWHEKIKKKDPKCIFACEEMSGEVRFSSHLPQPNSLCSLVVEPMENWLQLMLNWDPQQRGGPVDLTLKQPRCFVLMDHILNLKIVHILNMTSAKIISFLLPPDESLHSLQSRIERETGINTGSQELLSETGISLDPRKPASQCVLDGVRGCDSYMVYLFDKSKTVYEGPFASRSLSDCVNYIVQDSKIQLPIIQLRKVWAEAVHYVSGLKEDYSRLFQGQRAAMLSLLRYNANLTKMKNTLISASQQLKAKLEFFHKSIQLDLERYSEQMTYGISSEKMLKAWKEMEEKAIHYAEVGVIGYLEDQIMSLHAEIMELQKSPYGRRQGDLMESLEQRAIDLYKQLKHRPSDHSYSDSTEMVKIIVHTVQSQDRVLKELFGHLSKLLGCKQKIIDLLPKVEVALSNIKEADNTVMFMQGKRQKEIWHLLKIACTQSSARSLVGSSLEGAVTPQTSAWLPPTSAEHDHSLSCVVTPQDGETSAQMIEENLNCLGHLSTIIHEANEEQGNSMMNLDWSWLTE
# [8] = target: Serine/threonine-protein kinase Nek2 (Homo sapiens) (UniProt P51955); test: Inhibition of human NEK2 assessed as residual activity at 10 uM using MBP as substrate preincubated for 20 mins followed by [gamma-33P]-ATP addition and measured after 120 mins by Hotspot assay relative to control
# Chain of Serine/threonine-protein kinase Nek2 (Homo sapiens) (P51955 whole entry): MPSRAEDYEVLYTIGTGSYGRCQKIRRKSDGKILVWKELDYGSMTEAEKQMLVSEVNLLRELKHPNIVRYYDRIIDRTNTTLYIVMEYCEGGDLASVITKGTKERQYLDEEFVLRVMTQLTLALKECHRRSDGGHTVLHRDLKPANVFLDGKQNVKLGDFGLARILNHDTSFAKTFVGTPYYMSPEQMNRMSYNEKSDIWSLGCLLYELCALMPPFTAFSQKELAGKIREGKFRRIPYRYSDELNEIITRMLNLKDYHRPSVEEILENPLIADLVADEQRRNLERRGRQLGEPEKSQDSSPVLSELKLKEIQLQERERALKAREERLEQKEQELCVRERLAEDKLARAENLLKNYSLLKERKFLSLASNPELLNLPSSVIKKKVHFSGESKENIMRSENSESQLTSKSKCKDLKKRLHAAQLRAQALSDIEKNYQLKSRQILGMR
# [9] = target: Serine/threonine-protein kinase pim-1 (Homo sapiens) (UniProt P11309); test: Inhibition of human PIM1 assessed as residual activity at 10 uM using KKRNRTLTK as substrate preincubated for 20 mins followed by [gamma-33P]-ATP addition and measured after 120 mins by Hotspot assay relative to control
# [10] = target: Tyrosine-protein kinase ABL1 (Homo sapiens, UniProt P00519, F317L); test: Binding affinity to human non-phosphorylated ABL1 F317L mutant (S229 to K512 residues) expressed in mammalian expression system after 60 mins by Kinomescan method
# [11] = target: Tyrosine-protein kinase ABL1 (Homo sapiens, UniProt P00519, H396P); test: Binding affinity to human phosphorylated ABL1 H396P mutant (S229 to K512 residues) expressed in mammalian expression system after 60 mins by Kinomescan method
# [12] = target: Tyrosine-protein kinase ABL1 (Homo sapiens, UniProt P00519, Q252H); test: Binding affinity to human phosphorylated ABL1 Q252H mutant expressed in mammalian expression system after 60 mins by Kinomescan method
# [13] = target: Tyrosine-protein kinase ABL1 (Homo sapiens, UniProt P00519); test: Binding affinity to wild-type human non-phosphorylated ABL1 (S229 to K512 residues) expressed in mammalian expression system after 60 mins by Kinomescan method
# [14] = target: Tyrosine-protein kinase Lck (Homo sapiens, UniProt P06239); test: Inhibition of human LCK using poly[Glu:Tyr] (4:1) as substrate preincubated for 20 mins followed by [gamma-33P]-ATP addition and measured after 120 mins by Hotspot assay
# Chain of Tyrosine-protein kinase Lck (P06239 whole entry): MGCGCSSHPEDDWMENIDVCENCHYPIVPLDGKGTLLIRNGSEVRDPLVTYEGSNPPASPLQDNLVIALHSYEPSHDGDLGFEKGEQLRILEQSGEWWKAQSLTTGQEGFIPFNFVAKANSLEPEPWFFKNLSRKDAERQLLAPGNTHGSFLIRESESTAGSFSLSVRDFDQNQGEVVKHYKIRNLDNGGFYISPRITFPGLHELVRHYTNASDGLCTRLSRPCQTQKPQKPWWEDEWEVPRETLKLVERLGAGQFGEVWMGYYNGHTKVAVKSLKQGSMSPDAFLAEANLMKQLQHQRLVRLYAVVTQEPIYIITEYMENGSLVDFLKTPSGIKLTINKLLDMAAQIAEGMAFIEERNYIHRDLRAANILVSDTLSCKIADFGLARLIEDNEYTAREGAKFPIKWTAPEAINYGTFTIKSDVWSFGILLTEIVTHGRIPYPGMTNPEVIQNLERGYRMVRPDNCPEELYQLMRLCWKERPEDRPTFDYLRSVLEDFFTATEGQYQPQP
# [15] = target: T1, Tyrosine-protein kinase BTK; test: Inhibition of human BTK using KVEKIGEGTYGVVYK as substrate preincubated for 20 mins followed by [gamma-33P]-ATP addition and measured after 120 mins by Hotspot assay
# [16] = target: ALK tyrosine kinase receptor (Homo sapiens, UniProt Q9UM73); test: Inhibition of human ALK using poly[Glu:Tyr] (4:1) as substrate preincubated for 20 mins followed by [gamma-33P]-ATP addition and measured after 120 mins by Hotspot assay
# [17] = target: Cyclin-dependent kinase 7/ cyclin H (Homo sapiens, UniProt P50613); test: Inhibition of human CDK7/cyclin-H using MBP as substrate preincubated for 20 mins followed by [gamma-33P]-ATP addition and measured after 120 mins by Hotspot assay; assay type: protein-complex assay
# Chain of Cyclin-dependent kinase 7/ cyclin H (P51946 whole entry): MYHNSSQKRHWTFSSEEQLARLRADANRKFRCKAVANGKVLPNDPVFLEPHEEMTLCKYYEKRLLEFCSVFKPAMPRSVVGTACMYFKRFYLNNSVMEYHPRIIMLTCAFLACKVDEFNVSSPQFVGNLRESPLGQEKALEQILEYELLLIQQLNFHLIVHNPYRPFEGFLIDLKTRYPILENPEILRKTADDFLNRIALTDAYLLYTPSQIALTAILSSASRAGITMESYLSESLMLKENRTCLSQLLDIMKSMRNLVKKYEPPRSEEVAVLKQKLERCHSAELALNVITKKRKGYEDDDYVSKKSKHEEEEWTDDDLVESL
# Chain of Cyclin-dependent kinase 7/ cyclin H (P50613 whole entry): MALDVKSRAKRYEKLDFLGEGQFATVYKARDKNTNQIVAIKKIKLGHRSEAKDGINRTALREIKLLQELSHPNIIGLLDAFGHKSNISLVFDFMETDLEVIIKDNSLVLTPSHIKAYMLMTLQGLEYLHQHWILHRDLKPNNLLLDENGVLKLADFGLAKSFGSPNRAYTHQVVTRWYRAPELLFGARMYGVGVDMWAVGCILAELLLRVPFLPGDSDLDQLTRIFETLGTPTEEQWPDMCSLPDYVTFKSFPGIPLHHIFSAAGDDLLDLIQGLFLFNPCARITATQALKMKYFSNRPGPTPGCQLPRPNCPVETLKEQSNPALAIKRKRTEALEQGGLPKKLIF
# RS4-11 = test: Growth inhibition of human RS4:11 cells harboring WT FLT3 at 10 uM after 72 hrs by CellTiter-Glo assay relative to control; assay type: functional; conditions: RS4-11, 72 h, read-out: GI
# MV4-11 [18] = test: Cell cycle arrest in human MV4-11 cells assessed as accumulation at G2/M phase after 24 hrs by ribonuclease/propidium iodide staining based flow cytometric analysis; assay type: functional
# MV4-11 [19] = test: Induction of apoptosis in human MV4-11 cells assessed as late apoptotic cells at 0.02 uM after 24 hrs by Annexin V-FITC/propidium iodide staining based flow cytometric analysis (reference value: 1.42%); assay type: functional
# MV4-11 [20] = test: Induction of apoptosis in human MV4-11 cells assessed as necrotic cells at 0.02 uM after 24 hrs by Annexin V-FITC/propidium iodide staining based flow cytometric analysis (reference value: 0%); assay type: functional
# MV4-11 [21] = test: Induction of apoptosis in human MV4-11 cells assessed as viable cells at 0.02 uM after 24 hrs by Annexin V-FITC/propidium iodide staining based flow cytometric analysis (reference value: 95.19%); assay type: functional; conditions: MV4-11, 24 h, read-out: Activity
# MV4-11 [22] = test: Induction of apoptosis in human MV4-11 cells assessed as early apoptotic cells at 0.1 uM after 24 hrs by Annexin V-FITC/propidium iodide staining based flow cytometric analysis (reference value: 3.39%); assay type: functional
# MV4-11 [23] = test: Induction of apoptosis in human MV4-11 cells assessed as necrotic cells at 0.2 uM after 24 hrs by Annexin V-FITC/propidium iodide staining based flow cytometric analysis (reference value: 0%); assay type: functional
# MV4-11 [24] = test: Induction of apoptosis in human MV4-11 cells assessed as early apoptotic cells at 1 uM after 24 hrs by Annexin V-FITC/propidium iodide staining based flow cytometric analysis (reference value: 3.39%); assay type: functional
# [25] = Half life in human liver microsomes at 1 uM after 5 to 60 mins in presence of NADPH by LC-MS/MS analysis; assay type: ADME, Microsome
# [26] = Intrinsic clearance in rat liver microsomes assessed per mg protein at 1 uM after 5 to 60 mins in presence of NADPH by LC-MS/MS analysis; assay type: ADME, Microsome; conditions: read-out: CLH
# Chain of Serine/threonine-protein kinase B-raf (Homo sapiens) (P15056 whole entry): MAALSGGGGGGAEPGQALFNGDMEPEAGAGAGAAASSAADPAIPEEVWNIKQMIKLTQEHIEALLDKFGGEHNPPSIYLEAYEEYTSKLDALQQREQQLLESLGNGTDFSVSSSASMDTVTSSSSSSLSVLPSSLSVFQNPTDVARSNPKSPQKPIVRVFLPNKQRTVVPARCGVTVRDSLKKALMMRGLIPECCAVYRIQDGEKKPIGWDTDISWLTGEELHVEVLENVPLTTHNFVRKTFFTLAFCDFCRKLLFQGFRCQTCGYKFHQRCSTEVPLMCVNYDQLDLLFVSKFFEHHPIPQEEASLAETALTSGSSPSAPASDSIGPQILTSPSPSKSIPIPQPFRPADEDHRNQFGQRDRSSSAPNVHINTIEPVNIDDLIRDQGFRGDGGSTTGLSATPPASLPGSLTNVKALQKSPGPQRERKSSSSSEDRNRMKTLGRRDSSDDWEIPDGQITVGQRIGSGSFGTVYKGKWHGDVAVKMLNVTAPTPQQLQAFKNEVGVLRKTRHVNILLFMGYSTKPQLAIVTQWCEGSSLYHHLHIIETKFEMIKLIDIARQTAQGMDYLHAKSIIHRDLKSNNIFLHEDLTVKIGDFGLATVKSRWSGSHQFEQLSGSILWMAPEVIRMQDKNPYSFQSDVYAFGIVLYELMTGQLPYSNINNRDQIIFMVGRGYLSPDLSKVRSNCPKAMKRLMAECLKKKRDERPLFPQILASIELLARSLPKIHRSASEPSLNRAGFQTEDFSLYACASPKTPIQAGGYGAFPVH
structure (smiles),measurement,setting,value
CN1CCC(Nc2ccc(C(=O)Nc3cc(-c4cc(C#N)cs4)n[nH]3)cc2)CC1,Activity,[1],67.7%
same,Activity,[2],12.9%
same,Activity,[3],74.5%
same,Activity,[4],49.2%
same,Activity,[5],27.1%
same,Activity,[6],11.8%
same,Activity,[7],86.5%
same,Activity,[8],11%
same,Activity,[9],5.11%
same,Kd,[10],6.9 µM
same,Kd,[11],390 nM
same,Kd,[12],300 nM
same,Kd,[13],370 nM
same,IC50,[14],1010 nM
same,IC50,[15]; read-out: IC50,1640 nM
same,IC50,[15]; read-out: pIC50 (converted),1580 nM
same,IC50,[16],5.14 µM
same,IC50,[17],7.91 µM
same,inhibition of growth at 10 µM,RS4-11,1.33%
same,Activity,MV4-11 [18],Dose-dependent effect
same,Activity,MV4-11 [19],11.3%
same,Activity,MV4-11 [20],3.01%
same,viability at 0.02 µM,MV4-11 [21],68.6%
same,Activity,MV4-11 [22],24.27%
same,Activity,MV4-11 [23],4.1%
same,Activity,MV4-11 [24],31.43%
same,half-life at 1 µM,[25],61.9 min
same,microsomal CLint at 1 µM,[26],171 µL/min/mg

# Reference: ChEMBL document CHEMBL4330071 (Eur J Med Chem, 2019)
